The record followed here is ChEMBL document CHEMBL4834440, “2,2,2-trifluoro-1-(1,4,5,6-tetrahydropyridin-3-yl)ethanone derivative as efflux pump inhibitor in Mycobacterium tuberculosis” (Bioorg Med Chem Lett, 2021).

In assay [1] the test system is Mycobacterium tuberculosis. Briefly: Antimycobacterial activity against multidrug-resistant Mycobacterium tuberculosis FURG-2 assessed as inhibition of bacterial growth measured by Resazurin microtitre assay. It is filed as functional. (Alamar Blue is a resazurin reagent that responds to reducing activity.)
For assay [2], the system named is Mycobacterium tuberculosis H37Rv. Kind of assay: Inhibition of Multidrug resistance efflux pump in Mycobacterium tuberculosis H37Rv assessed as relative final fluorescence at 6.26 ug/ml measured by ethidium bromide accumulation assay. Particulars: dose 6.26 µg/ml.
For assay [3], the system named is Mycobacterium tuberculosis. Briefly: Inhibition of Multidrug resistance efflux pump in Mycobacterium tuberculosis FURG-2 assessed as relative final fluorescence at 3.12 ug/ml measured by ethidium bromide accumulation assay. Particulars: dose 3.12 µg/ml.
The test system of assay [4] is Mycobacterium tuberculosis H37Rv. Kind of assay: Inhibition of Multidrug resistance efflux pump in Mycobacterium tuberculosis H37Rv assessed as reduction in rifampicin MIC at 1.56 ug/ml measured by ethidium bromide accumulation assay. Particulars: dose 1.56 µg/ml.

The structures appear in SMILES notation. Values after ≈ are worked out from the molar mass of the structure shown.

On to `O=C(C1=CN(CCc2ccccc2)C(NCCc2ccccc2)CC1)C(F)(F)F` (centres undefined), for which the MIC in assay [1] came to 12.5 µg/mL (≈ 31.1 µM); in assay [4] it was 16 µg/mL. Further, the RFU in assay [2] was -0.2; in assay [3], 1.07.
